Publication PMC11189555, “Aryl amino acetamides prevent Plasmodium falciparum ring development via targeting the lipid-transfer protein PfSTART1” (Nature Communications, 2024)
Where two headings read alike, the source gives them in different places.

Columns and labels:
[1] = test system: 3D7 P. falciparum parasites; assay: Growth inhibition assay (72 h, LDH activity); type: cell-based, Plasmodium falciparum; conditions: for EC50: Plasmodium falciparum
Protocol: Parasite growth assays with inhibitory compounds were performed as per[11] and are fully described in the Supplementary Information. […]
Growth inhibition assays. Synchronised ring-stage parasites (0.3-0.6% parasitemia, 2% haematocrit) were grown for 72 h in a serial-dilution of the compound under […]
and compound 4. Note that M-833 was first purchased from MolPort (MolPort -002-267-916) then made in-house at WEHI: the differences observed in EC50s across experiments are attributed to the different batches of M -833. For some experiments, 0, 0.25 or 2.5 mM of glucosamine (GlcN) was also added. Experiments were set up in technical duplicates or triplicates. Following a freeze -thaw cycle, lactate dehydrogenase (LDH) activity was assessed as an indicator of parasite growt h 5. 30 μL of parasite culture was incubated for 30 min in the dark with 75 μL Malstat mixture (0.1 M Tris pH 9.0, 20 g/L lactic acid, pH 7.5, 0.2% Triton-X100, 0.5 g/L acetylpyridine adenine dinucleotide (APAD, Sigma), 200 μg/mL nitroblue tetrazolium (NBT; Sigma), 1 μg/mL phenozine ethosulfate (PES; Sigma)). Absorbance was then measured at 650 nm, transformed using the formula below, plotted against the logarithm of the concentrations, and a non-linear regression (log(inhibitor) vs. response, variable slope) was calculated using GraphPad Prism to assess the half-inhibitory […]
Growth inhibition % = (1 − average(sample)− average(uRBC)) ∗ 100 […]
The DMSO samples were also used to assess growth of parasite in the presence of 0.25 and 2.5 mM GlcN (normalised by DMSO in 0 mM GlcN). […]

[2] = target: T1, recombinant PfSTART1(WT) (I149-V394) (Plasmodium falciparum, UniProt Q8I298); assay: Isothermal titration calorimetry; type: binding; conditions: ITC
T1 construct: START domain alone (I149-V394 from PF3D7_0104200); 8xHis tag (N); TEV protease cleavage site (N); made in house; host or cells: Sf21 insect cells (baculovirus)
T1 sequence (Q8I298 entry or part of it): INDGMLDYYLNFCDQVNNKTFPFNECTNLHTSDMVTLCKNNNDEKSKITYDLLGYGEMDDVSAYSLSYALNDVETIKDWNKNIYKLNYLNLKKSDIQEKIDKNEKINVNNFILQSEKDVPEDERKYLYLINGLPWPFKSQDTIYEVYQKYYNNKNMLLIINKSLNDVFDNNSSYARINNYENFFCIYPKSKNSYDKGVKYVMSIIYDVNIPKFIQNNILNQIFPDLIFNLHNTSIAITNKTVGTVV
From the text: Codon optimised (Spodoptera frugiperda, Sf) START domain alone (I149-V394 from PF3D7_0104200) was synthesised by Integrated DNA Technologies and cloned into a modified baculovirus transfer vector (pAcGP67-A) with a N-terminal GP67-signal sequence, 8xHis tag, and TEV protease cleavage site. Recombinant baculovirus was generated via the flashBACTM Baculovirus Expression System using Sf21 cells (Life Technologies), amplified to reach a third passage viral stock, and 1.5% used to infect Sf21 for protein expression. After incubation for three days at 28 °C, media containing secreted protein was harvested by centrifugation and supplemented with 50 mM Tris pH 7.5, 20 mM MgCl2, 100 mM NaCl, and 10-20 mM imidazole. The supplemented protein sample was purified by nickel affinity chromatography (HisTrap Excel 5 mL, Cytiva), and eluted with 20 mM Tris pH 7.5, 500 mM NaCl, 300-500 mM imidazole. Eluted fractions were further purified using size-exclusion chromatography (Superdex S75 16/600 or Superdex 10/300, Cytiva) with the column pre-equilibrated with 20 mM HEPES pH 7.5, 150 mM NaCl, and peak-containing fractions concentrated and stored at -80 °C until required. If required, prior to ITC, a second size-exclusion chromatography step was performed to remove soluble aggregates.
ITC experiments were performed on a MicroCal PEAQ-ITC calorimeter at 25 °C, with a stirring speed of 750 rpm and a reference power of 5 μcal/sec. 500 μM M-833 series inhibitor solutions were diluted to 10 μM in 50 mM NaPO4^-3 (pH 7.4), 150 mM NaCl with a final DMSO concentration of 2% (v/v) (cell sample). PfSTART1 protein was dialysed extensively against 50 mM NaPO4^-3 (pH 7.4), 150 mM NaCl, before diluting to 90 μM in the same buffer with 2% (v/v) DMSO (syringe sample). The first injection was 0.4 μL over a 0.8 s duration, and the remaining 19 injections were 2 μL of 4 s duration, with 150 s injection spacing. Data were collected and analysed using the PEAQ-ITC software (MicroCal) and fit by a single site binding model. A fitted offset (constant control heat) was also applied to the integrated heat.

[3] = 3D7, 72 h, Supplementary Table 1, 3D7, 72 h, read-out: EC50
[4] = 3D7, Fig 4A, 3D7 parasites, read-out: Pf 3D7 EC50 (SD)

CC(C)(Oc1ccc(Cl)c(S(=O)(=O)N2CCOCC2)c1)C(=O)Nc1ccc(F)c(Cl)c1 [compound 3]
(av-uRBC) / (DMSO-uRBC) x100 ([1]; 3D7, conc. 3.04832 nM, Biological replicate 1 (2021-10-25)): 98.9546
(av-uRBC) / (DMSO-uRBC) x100 ([1]; 3D7, conc. 3.04832 nM, Biological replicate 2 (2021-11-03)): 99.5733
(av-uRBC) / (DMSO-uRBC) x100 ([1]; 3D7, conc. 3.04832 nM, Biological replicate 3 (2021-11-11)): 55.9066
(av-uRBC) / (DMSO-uRBC) x100 ([1]; 3D7, conc. 9.14495 nM, Biological replicate 1 (2021-10-25)): 81.8447
(av-uRBC) / (DMSO-uRBC) x100 ([1]; 3D7, conc. 9.14495 nM, Biological replicate 2 (2021-11-03)): 87.421
(av-uRBC) / (DMSO-uRBC) x100 ([1]; 3D7, conc. 9.14495 nM, Biological replicate 3 (2021-11-11)): 38.3092
(av-uRBC) / (DMSO-uRBC) x100 ([1]; 3D7, conc. 27.4348 nM, Biological replicate 1 (2021-10-25)): 30.9131
(av-uRBC) / (DMSO-uRBC) x100 ([1]; 3D7, conc. 27.4348 nM, Biological replicate 2 (2021-11-03)): 28.899
(av-uRBC) / (DMSO-uRBC) x100 ([1]; 3D7, conc. 27.4348 nM, Biological replicate 3 (2021-11-11)): 16.2848
(av-uRBC) / (DMSO-uRBC) x100 ([1]; 3D7, conc. 82.3045 nM, Biological replicate 1 (2021-10-25)): 11.7409
(av-uRBC) / (DMSO-uRBC) x100 ([1]; 3D7, conc. 82.3045 nM, Biological replicate 2 (2021-11-03)): 11.9543
(av-uRBC) / (DMSO-uRBC) x100 ([1]; 3D7, conc. 82.3045 nM, Biological replicate 3 (2021-11-11)): 7.809
(av-uRBC) / (DMSO-uRBC) x100 ([1]; 3D7, conc. 246.914 nM, Biological replicate 1 (2021-10-25)): 8.8892
(av-uRBC) / (DMSO-uRBC) x100 ([1]; 3D7, conc. 246.914 nM, Biological replicate 2 (2021-11-03)): 10.72
(av-uRBC) / (DMSO-uRBC) x100 ([1]; 3D7, conc. 246.914 nM, Biological replicate 3 (2021-11-11)): 6.2069
(av-uRBC) / (DMSO-uRBC) x100 ([1]; 3D7, conc. 740.741 nM, Biological replicate 1 (2021-10-25)): 8.477
(av-uRBC) / (DMSO-uRBC) x100 ([1]; 3D7, conc. 740.741 nM, Biological replicate 2 (2021-11-03)): 10.3467
(av-uRBC) / (DMSO-uRBC) x100 ([1]; 3D7, conc. 740.741 nM, Biological replicate 3 (2021-11-11)): 4.271
(av-uRBC) / (DMSO-uRBC) x100 ([1]; 3D7, conc. 2222.22 nM, Biological replicate 1 (2021-10-25)): 8.256
(av-uRBC) / (DMSO-uRBC) x100 ([1]; 3D7, conc. 2222.22 nM, Biological replicate 2 (2021-11-03)): 10.0343
(av-uRBC) / (DMSO-uRBC) x100 ([1]; 3D7, conc. 2222.22 nM, Biological replicate 3 (2021-11-11)): 3.637
(av-uRBC) / (DMSO-uRBC) x100 ([1]; 3D7, conc. 6666.67 nM, Biological replicate 1 (2021-10-25)): 8.6332
(av-uRBC) / (DMSO-uRBC) x100 ([1]; 3D7, conc. 6666.67 nM, Biological replicate 2 (2021-11-03)): 8.244
(av-uRBC) / (DMSO-uRBC) x100 ([1]; 3D7, conc. 6666.67 nM, Biological replicate 3 (2021-11-11)): 2.725
(av-uRBC) / (DMSO-uRBC) x100 ([1]; 3D7, conc. 20000 nM, Biological replicate 1 (2021-10-25)): 7.467
(av-uRBC) / (DMSO-uRBC) x100 ([1]; 3D7, conc. 20000 nM, Biological replicate 2 (2021-11-03)): 5.95
(av-uRBC) / (DMSO-uRBC) x100 ([1]; 3D7, conc. 20000 nM, Biological replicate 3 (2021-11-11)): -1.791
improvement in antiparasitic activity relative to the activity of M-833 ([1]; EC50 based): 10 fold
EC50 [1, 3]: 16 nM
EC50 [1, 4]: 150 nM
EC50 ([1]; 3D7, text on structure activity relationship (Fig 4A), read-out: EC50, antiparasitic activity): 120 nM

CN(C(=O)C(C)(C)Nc1ccc(Cl)c(S(=O)(=O)N2CCOCC2)c1)c1ccc(F)c(Cl)c1 [compound 4]
Growth inhibition % (LDH, relative to DMSO) ([1]; 3D7, 0.00152416 uM, biological replicate 3 (2023-02-07)): -17.5745
Growth inhibition % (LDH, relative to DMSO) ([1]; 3D7, 0.00304832 uM, biological replicate 1 (2021-10-25)): -18.3864
Growth inhibition % (LDH, relative to DMSO) ([1]; 3D7, 0.00457247 uM, biological replicate 3 (2023-02-07)): -17.9271
Growth inhibition % (LDH, relative to DMSO) ([1]; 3D7, 0.00914495 uM, biological replicate 1 (2021-10-25)): -26.0151
Growth inhibition % (LDH, relative to DMSO) ([1]; 3D7, 0.0137174 uM, biological replicate 3 (2023-02-07)): -25.0392
Growth inhibition % (LDH, relative to DMSO) ([1]; 3D7, 0.0274348 uM, biological replicate 1 (2021-10-25)): -36.8606
Growth inhibition % (LDH, relative to DMSO) ([1]; 3D7, 0.0411523 uM, biological replicate 3 (2023-02-07)): -21.1207
Growth inhibition % (LDH, relative to DMSO) ([1]; 3D7, 0.078125 uM, biological replicate 2 (2023-02-07)): -4.3247
Growth inhibition % (LDH, relative to DMSO) ([1]; 3D7, 0.0823045 uM, biological replicate 1 (2021-10-25)): -42.8019
Growth inhibition % (LDH, relative to DMSO) ([1]; 3D7, 0.123457 uM, biological replicate 3 (2023-02-07)): -34.2281
Growth inhibition % (LDH, relative to DMSO) ([1]; 3D7, 0.15625 uM, biological replicate 2 (2023-02-07)): -4.463
Growth inhibition % (LDH, relative to DMSO) ([1]; 3D7, 0.246914 uM, biological replicate 1 (2021-10-25)): -45.3858
Growth inhibition % (LDH, relative to DMSO) ([1]; 3D7, 0.3125 uM, biological replicate 2 (2023-02-07)): -3.423
Growth inhibition % (LDH, relative to DMSO) ([1]; 3D7, 0.37037 uM, biological replicate 3 (2023-02-07)): -26.6654
Growth inhibition % (LDH, relative to DMSO) ([1]; 3D7, 0.625 uM, biological replicate 2 (2023-02-07)): -4.556
Growth inhibition % (LDH, relative to DMSO) ([1]; 3D7, 0.740741 uM, biological replicate 1 (2021-10-25)): -43.9445
Growth inhibition % (LDH, relative to DMSO) ([1]; 3D7, 1.11111 uM, biological replicate 3 (2023-02-07)): -37.6176
Growth inhibition % (LDH, relative to DMSO) ([1]; 3D7, 1.25 uM, biological replicate 2 (2023-02-07)): 10.8002
Growth inhibition % (LDH, relative to DMSO) ([1]; 3D7, 2.22222 uM, biological replicate 1 (2021-10-25)): -10.0721
Growth inhibition % (LDH, relative to DMSO) ([1]; 3D7, 2.5 uM, biological replicate 2 (2023-02-07)): 18.1545
Growth inhibition % (LDH, relative to DMSO) ([1]; 3D7, 3.33333 uM, biological replicate 3 (2023-02-07)): -31.3871
Growth inhibition % (LDH, relative to DMSO) ([1]; 3D7, 5 uM, biological replicate 2 (2023-02-07)): 37.6735
Growth inhibition % (LDH, relative to DMSO) ([1]; 3D7, 6.66667 uM, biological replicate 1 (2021-10-25)): 35.3489
Growth inhibition % (LDH, relative to DMSO) ([1]; 3D7, 10 uM, biological replicate 2 (2023-02-07)): 60.2451
Growth inhibition % (LDH, relative to DMSO) ([1]; 3D7, 10 uM, biological replicate 3 (2023-02-07)): 26.4107
Growth inhibition % (LDH, relative to DMSO) ([1]; 3D7, 20 uM, biological replicate 1 (2021-10-25)): 75.5669
Growth inhibition % (LDH, relative to DMSO) ([1]; 3D7, 20 uM, biological replicate 2 (2023-02-07)): 87.1878
EC50 [1, 3]: 10000 nM
EC50 [1, 4]: > 10000 nM
interaction with PfSTART1(WT) [2]: did not interact
